Assay results from PMC5856393, “Synthetic pathways and processes for effective production of 5-hydroxytryptophan and serotonin from glucose in Escherichia coli” (Journal of Biological Engineering, 2018).

What was measured:
[1] = target: T1, CtAAAH-F (aromatic amino acid hydroxylase W192F) (Cupriavidus taiwanensis, UniProt B3R7Q6, W192F); test: tryptophan hydroxylation assay, Lineweaver-Burk plot; assay type: biochemical; details: parent CtAAAH-F (W192F); assay conditions only by citation
T1 construct: gene phhA; engineered W192F parent, expressed in E. coli from pACYCDuet-1 derivatives; tag and purification not described here
T1 sequence (B3R7Q6 entry or part of it W192F): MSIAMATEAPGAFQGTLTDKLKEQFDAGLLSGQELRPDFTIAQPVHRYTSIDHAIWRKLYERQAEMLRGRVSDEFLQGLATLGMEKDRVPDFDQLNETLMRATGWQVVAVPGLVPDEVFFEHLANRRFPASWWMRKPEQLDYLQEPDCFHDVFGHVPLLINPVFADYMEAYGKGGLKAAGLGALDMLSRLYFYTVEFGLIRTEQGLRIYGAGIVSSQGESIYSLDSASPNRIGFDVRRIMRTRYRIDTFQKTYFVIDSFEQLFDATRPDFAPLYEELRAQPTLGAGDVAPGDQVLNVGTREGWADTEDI
Source text: (§1) tryptophan hydroxylation assay, Lineweaver-Burk plot on CtAAAH-F (aromatic amino acid hydroxylase W192F)

[2] = target: T2, CtAAAH-F (aromatic amino acid hydroxylase W192F) (Cupriavidus taiwanensis, UniProt B3R7Q6, W192F/E219C); test: as above; assay type: biochemical; details: made in the CtAAAH-F (W192F) background; assay conditions only by citation
T2 construct: gene phhA; engineered W192F parent, expressed in E. coli from pACYCDuet-1 derivatives; tag and purification not described here
T2 sequence (B3R7Q6 entry or part of it W192F/E219C): as the sequence (B3R7Q6 entry or part of it W192F) above, with E219C counted along it
Source text: as §1

[3] = target: T3, CtAAAH-F (aromatic amino acid hydroxylase W192F) (Cupriavidus taiwanensis, UniProt B3R7Q6, W192F/F197I); test: as above; assay type: biochemical; details: made in the CtAAAH-F (W192F) background; assay conditions only by citation
T3 construct: gene phhA; engineered W192F parent, expressed in E. coli from pACYCDuet-1 derivatives; tag and purification not described here
T3 sequence (B3R7Q6 entry or part of it W192F/F197I): as the sequence (B3R7Q6 entry or part of it W192F) above, with F197I counted along it
Source text: as §1

[4] = target: T4, CtAAAH-F (aromatic amino acid hydroxylase W192F) (Cupriavidus taiwanensis, UniProt B3R7Q6, W192F/F197L); test: as above; assay type: biochemical; details: made in the CtAAAH-F (W192F) background; assay conditions only by citation
T4 construct: gene phhA; engineered W192F parent, expressed in E. coli from pACYCDuet-1 derivatives; tag and purification not described here
T4 sequence (B3R7Q6 entry or part of it W192F/F197L): as the sequence (B3R7Q6 entry or part of it W192F) above, with F197L counted along it
Source text: as §1

[5] = target: T5, CtAAAH-F (aromatic amino acid hydroxylase W192F) (Cupriavidus taiwanensis, UniProt B3R7Q6, W192F/F197L/E219C); test: as above; assay type: biochemical; details: made in the CtAAAH-F (W192F) background; assay conditions only by citation
T5 construct: gene phhA; engineered W192F parent, expressed in E. coli from pACYCDuet-1 derivatives; tag and purification not described here
T5 sequence (B3R7Q6 entry or part of it W192F/F197L/E219C): as the sequence (B3R7Q6 entry or part of it W192F) above, with F197L, E219C counted along it
Source text: as §1

[6] = target: T6, TDC (tryptophan decarboxylase) (Catharanthus roseus, UniProt P17770); test: whole-cell bioconversion, HPLC of serotonin; assay type: cell-based; details: E. coli BL21(DE3) delta-tnaA expressing TDC; pH 6.7, 30 °C
T6 construct: expressed in E. coli BL21(DE3) delta-tnaA from pCOLAJ23-TDC; gene from pCOLADuet-GSTdelta37T5H + TDC
T6 sequence (P17770 whole entry): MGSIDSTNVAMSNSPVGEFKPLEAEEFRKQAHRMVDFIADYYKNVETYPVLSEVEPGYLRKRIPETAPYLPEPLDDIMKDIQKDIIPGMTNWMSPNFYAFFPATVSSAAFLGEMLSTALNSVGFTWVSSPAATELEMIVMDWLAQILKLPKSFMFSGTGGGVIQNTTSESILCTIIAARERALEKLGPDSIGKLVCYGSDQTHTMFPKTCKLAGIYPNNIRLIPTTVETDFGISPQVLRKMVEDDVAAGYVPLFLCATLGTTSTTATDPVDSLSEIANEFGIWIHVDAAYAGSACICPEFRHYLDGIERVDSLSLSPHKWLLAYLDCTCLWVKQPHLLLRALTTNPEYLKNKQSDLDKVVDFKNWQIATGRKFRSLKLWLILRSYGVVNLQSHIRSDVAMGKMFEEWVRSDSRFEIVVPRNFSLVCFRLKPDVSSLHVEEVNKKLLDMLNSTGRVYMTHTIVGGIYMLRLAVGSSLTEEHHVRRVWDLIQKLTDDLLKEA

Row | SMILES | Km [1] [µM] | Km [2] [µM] | Km [3] [µM] | Km [4] [µM] | Km [5] [µM] | whole-cell bioconversion, HPLC of serotonin [6]
1 | N[C@@H](Cc1c[nH]c2ccccc12)C(=O)O [tryptophan] | 3000 | 1800 | 2100 | 1600 | 950 | –
2 | N[C@@H](Cc1c[nH]c2ccc(O)cc12)C(=O)O [5HTP] | – | – | – | – | – | The consumption of 5HTP and serotonin production had a strong correlation
